Measured values reported in patent publication US20230136297A1, “Methods Of Treating Fabry Disease In Patients Having A Mutation In The GLA Gene” (Amicus Therapeutics, Inc., priority 2020, published 2023).
Positions count from the first letter of the chain named.

Legend:
[1] = target: T1, α-Gal A mutant form L310V (Homo sapiens, UniProt P06280, L310V); assay: α-Gal A activity in lysates of transfected HEK-293 cells ± migalastat (HEK assay); format: cell-based
T1 construct: expressed in transfected cells; host or cells: HEK-293
T1 sequence (P06280 32-429 L310V): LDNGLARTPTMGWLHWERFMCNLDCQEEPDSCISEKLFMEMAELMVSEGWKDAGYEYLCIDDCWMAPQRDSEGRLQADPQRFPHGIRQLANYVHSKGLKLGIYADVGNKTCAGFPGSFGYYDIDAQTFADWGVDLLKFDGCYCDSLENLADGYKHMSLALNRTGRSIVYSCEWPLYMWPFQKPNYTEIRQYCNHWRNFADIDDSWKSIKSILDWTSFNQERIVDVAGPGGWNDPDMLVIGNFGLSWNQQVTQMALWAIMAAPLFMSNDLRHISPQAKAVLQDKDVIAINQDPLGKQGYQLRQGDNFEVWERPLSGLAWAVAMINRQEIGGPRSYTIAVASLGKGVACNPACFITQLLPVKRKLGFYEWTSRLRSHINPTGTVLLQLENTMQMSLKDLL
How it was run: (§1)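 Activity is reported as nmol of free 4-MU released per mg protein per hour (nmol/mg/hr).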

[2] = target: T2, α-Gal A mutant form F169I (Homo sapiens, UniProt P06280, F169I); assay: as above; format: cell-based
T2 construct: expressed in transfected cells; host or cells: HEK-293
T2 sequence (P06280 32-429 F169I): T1 sequence (P06280 32-429 L310V) with F138I, V279L
How it was run: as §1

[3] = target: T3, α-Gal A mutant form G360R (Homo sapiens, UniProt P06280, G360R); assay: as above; format: cell-based
T3 construct: expressed in transfected cells; host or cells: HEK-293
T3 sequence (P06280 32-429 G360R): T1 sequence (P06280 32-429 L310V) with V279L, G329R
How it was run: as §1

[4] = target: T4, α-Gal A mutant form I303V (Homo sapiens, UniProt P06280, I303V); assay: as above; format: cell-based
T4 construct: expressed in transfected cells; host or cells: HEK-293
T4 sequence (P06280 32-429 I303V): T1 sequence (P06280 32-429 L310V) with I272V, V279L
How it was run: as §1

α-Gal A mutant form R38S = target: T5, α-Gal A mutant form R38S (Homo sapiens, UniProt P06280, R38S); assay: as above; format: cell-based
T5 construct: expressed in transfected cells; host or cells: HEK-293
T5 sequence (P06280 32-429 R38S): T1 sequence (P06280 32-429 L310V) with R7S, V279L
How it was run: as §1

α-Gal A mutant form A29D = assay: as above; format: cell-based, human
Description: (§2) Such mutations or variants are also referred to herein as “HEK assay amenable” mutations or variants.
(§3) The α-Gal A activity is expressed as the nmoles of free 4-MU released per milligram of protein per hour (nmol/mg/hr).

[5] = system: novel α-Gal A mutations A29D, R38S, N53Y, Y88C, V124G, I133F, A143V, Y152N, F159C, A160D, D165N, F169I, L180V, D182G, R196T, W209R, A257T, P259S, G271A, S276T …; assay: HEK assay, amenability of the novel mutations taken together; format: cell-based, human; details: all 31 novel mutations; criteria: relative increase ≥1.20-fold and absolute increase ≥3.0% wild-type at 10 μM migalastat
Description: as §2, §3

[6] = 10 μM migalastat minus baseline
[7] = HEK-293 lysates, 10 μM migalastat 5 days, mean ± SEM

## OC[C@H]1NC[C@H](O)[C@@H](O)[C@H]1O [migalastat, (2R,3S,4R,5S)-2-(hydroxymethyl) piperdine-3,4,5-triol]
[1]; [6]
  Absolute increase (% WT): 22.8 % WT
[1]; 10 μM migalastat ÷ baseline
  Relative increase: 1.37
[1]; [7]
  10 μM migalastat α-Gal A activity: 31936 ± 2527 nmol/mg/h
  10 μM migalastat α-Gal A activity (% WT): 78.4 ± 4.8 % WT
[2]; [6]
  Absolute increase (% WT): 35.9 % WT
[2]; 10 μM migalastat ÷ baseline
  Relative increase: 3.44
[2]; [7]
  10 μM migalastat α-Gal A activity: 15903 ± 567 nmol/mg/h
  10 μM migalastat α-Gal A activity (% WT): 51.7 ± 2.2 % WT
[3]; [6]
  Absolute increase (% WT): 3 % WT
[3]; 10 μM migalastat ÷ baseline
  Relative increase: 3.65
[3]; [7]
  10 μM migalastat α-Gal A activity: 1418 ± 93 nmol/mg/h
  10 μM migalastat α-Gal A activity (% WT): 4.0 ± 0.3 % WT
[4]; [6]
  Absolute increase (% WT): 35 % WT
[4]; 10 μM migalastat ÷ baseline
  Relative increase: 1.91
[4]; [7]
  10 μM migalastat α-Gal A activity: 28958 ± 3153 nmol/mg/h
  10 μM migalastat α-Gal A activity (% WT): 73.2 ± 8.8 % WT
α-Gal A mutant form R38S; [6]
  Absolute increase (% WT): 26.6 % WT
α-Gal A mutant form R38S; 10 μM migalastat ÷ baseline
  Relative increase: 1.29
α-Gal A mutant form R38S; [7]
  10 μM migalastat α-Gal A activity: 30928 ± 1484 nmol/mg/h
  10 μM migalastat α-Gal A activity (% WT): 100 ± 9.3 % WT
α-Gal A mutant form A29D; [6]
  Absolute increase (% WT): 5.1 % WT
α-Gal A mutant form A29D; 10 μM migalastat ÷ baseline
  Relative increase: 1.35
α-Gal A mutant form A29D; [7]
  10 μM migalastat α-Gal A activity: 6877 ± 474 nmol/mg/h
  10 μM migalastat α-Gal A activity (% WT): 20.3 ± 1.1 % WT
[5]
  in vitro response to incubation with migalastat: met amenability criteria
